In patent US20020137929A1, “1 - (3-heterocyclylphenyl) isothiourea, -isourea, -guanidine and -amidine herbicidal agents” (Intellectual Property Department, BASF Aktiengesellschaft, priority 1998, published 2002):

What was measured:
[1] = test system: SETVI (Foxtail, Green); experiment: Preemergence herbicidal evaluation; format: in vivo, Setaria viridis; conditions: rated 4-5 weeks after treatment
In short: (§1)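 Steps: mix seeds into potting soil; plant atop ~1 inch soil; spray compound in aqueous acetone (~0.0156-0.500 kg/ha equivalent); maintain in greenhouse with watering; rate visually 0-9 versus control at 4-5 weeks.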

[2] = test system: IPOHE (Morningglory, Ivyleaf); experiment: Preemergence herbicidal evaluation; format: in vivo, Ipomoea hederacea; conditions: rated 4-5 weeks after treatment
In short: as §1

[3] = test system: SAGPY (Arrowhead (Pygmaea)); experiment: Preemergence weed control under flooded paddy conditions; format: in vivo, Sagittaria pygmaea; conditions: rated 3-4 weeks after treatment
In short: (§2)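 Using flooded silt loam (water 1.5 to 3 cm deep), seeds sown in the top 0.5 cm were exposed preemergence to compound pipetted into the flood at about 0.0313 to 0.500 kg/ha. Effects were scored 0-9 by eye three to four weeks later.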

[4] = test system: CASOB (Sicklepod); experiment: Preemergence herbicidal evaluation; format: in vivo, Cassia obtusifolia; conditions: rated 4-5 weeks after treatment
In short: as §1

[5] = test system: AMBEL (Ragweed, Common); experiment: Postemergence herbicidal evaluation; format: in vivo, Ambrosia artemisifolia; conditions: postemergence
In short: (§3)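 Seedlings grown about two weeks were sprayed at 40 psi with compound dispersed in 50/50 acetone/water plus 0.5% TWEEN 20, at about 0.0156 to 0.500 kg/ha. Plants were kept in the greenhouse and scored 4–5 weeks later on a 0–9 visual scale against untreated controls.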

[6] = test system: CYPSE (Flatsedge); experiment: Preemergence weed control under flooded paddy conditions; format: in vivo, Cyperus serotinus; conditions: rated 3-4 weeks after treatment
In short: as §2

[7] = test system: ABUTH (Velvetleaf); experiment: Postemergence herbicidal evaluation; format: in vivo, Abutilon theophrasti; conditions: postemergence
In short: as §3

[8] = test system: TRZAWR (Wheat, Winter, cv Riband); experiment: Preemergence herbicidal evaluation; format: in vivo, Triticum aestivum; conditions: rated 4-5 weeks after treatment
In short: as §1

[9] = test system: ORYSAT (Rice, Tebonnet); experiment: Postemergence herbicidal evaluation; format: in vivo, Oryza sativa, (L.) Tebonnet; conditions: postemergence
In short: as §3

[10] = test system: GLXMAW (Soybean, Williams); experiment: Preemergence herbicidal evaluation; format: in vivo, Glycine max, (L.) Merr. cv Williams; conditions: rated 4-5 weeks after treatment
In short: as §1

[11] = test system: AMBEL (Ragweed, Common); experiment: Preemergence herbicidal evaluation; format: in vivo, Ambrosia artemisifolia; conditions: rated 4-5 weeks after treatment
In short: as §1

[12] = test system: ECHORC (Watergrass (Calif.)); experiment: Preemergence weed control under flooded paddy conditions; format: in vivo, Echinochloa oryzoides; conditions: rated 3-4 weeks after treatment
In short: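 First, seeds or propagules go into the top 0.5 cm of silt loam; next, water is held 1.5 to 3 cm over the soil; then compound (50/50 acetone/water) is pipetted into it at about 0.0313 to 0.500 kg/ha; finally plants are rated visually 0-9 after three to four weeks.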

[13] = test system: ORYSAT (Rice, Tebonnet); experiment: Preemergence herbicidal evaluation; format: in vivo, Oryza sativa, (L.) Tebonnet; conditions: rated 4-5 weeks after treatment
In short: as §1

[14] = test system: CHEAL (Lambsquarters, Common); experiment: Preemergence herbicidal evaluation; format: in vivo, Chenopodium album; conditions: rated 4-5 weeks after treatment
In short: as §1

[15] = test system: ZEAMX (Corn, Field); experiment: Postemergence herbicidal evaluation; format: in vivo, Zea mays; conditions: postemergence
In short: as §3

[16] = test system: GALAP (Galium); experiment: Preemergence herbicidal evaluation; format: in vivo, Galium aparine; conditions: rated 4-5 weeks after treatment
In short: as §1

In the case of CCOC(=O)CN1C(=O)C(CC(=O)NS(=O)(=O)C(C)C)SC1=Nc1cc(-n2c(=O)cc(C(F)(F)F)n(C)c2=O)c(F)cc1Cl (centres unmarked) [Compound 117, Ethyl 2-{{2-chloro-5-[3,6-dihydro-3-methyl-2,6-dioxo-4-(trifluoromethyl)-1(2H)-pyrimidinyl]-4-fluorophenyl}imino}-5-{[(isopropylsulfonyl)-carbamoyl]methyl}-4-oxo-3-thiazolidineacetate], the “Preemergence herbicidal rating SETVI” value ([1]; rate 0.0156 kg/ha) is reported as 1.0, the “Preemergence herbicidal rating SETVI” value ([1]; rate 0.0313 kg/ha) is reported as 0.0 and the “Preemergence herbicidal rating SETVI” value ([1]; rate 0.0625 kg/ha) is reported as 1.0. The “Preemergence herbicidal rating SETVI” value ([1]; rate 0.1250 kg/ha) was 0.0, the “Preemergence herbicidal rating SETVI” value ([1]; rate 0.2500 kg/ha) was 0.0 and the “Preemergence herbicidal rating IPOHE” value ([2]; rate 0.0156 kg/ha) was 0.0. The “Preemergence herbicidal rating IPOHE” value ([2]; rate 0.0313 kg/ha) was 0.0, the “Preemergence herbicidal rating IPOHE” value ([2]; rate 0.0625 kg/ha) was 0.0 and the “Preemergence herbicidal rating IPOHE” value ([2]; rate 0.1250 kg/ha) was 0.0. For the same molecule, the “Preemergence herbicidal rating IPOHE” value ([2]; rate 0.2500 kg/ha) was 9.0, the “herbicidal effect rating, SAGPY” value ([3]; 0.0313 kg/ha) was 0.0 and the “herbicidal effect rating, SAGPY” value ([3]; 0.0625 kg/ha) was 0.0. The “herbicidal effect rating, SAGPY” value ([3]; 0.1250 kg/ha) was 0.0, the “herbicidal effect rating, SAGPY” value ([3]; 0.2500 kg/ha) was 0.0 and the “Preemergence herbicidal rating CASOB” value ([4]; rate 0.0156 kg/ha) was 0.0. The “Preemergence herbicidal rating CASOB” value ([4]; rate 0.0313 kg/ha) was 0.0, the “Preemergence herbicidal rating CASOB” value ([4]; rate 0.0625 kg/ha) was 0.0 and the “Preemergence herbicidal rating CASOB” value ([4]; rate 0.1250 kg/ha) was 1.0. For the same molecule, the “Preemergence herbicidal rating CASOB” value ([4]; rate 0.2500 kg/ha) was 1.0, the “herbicidal rating AMBEL” value ([5]; rate 0.0158 kg/ha) was 4.0 and the “herbicidal rating AMBEL” value ([5]; rate 0.0315 kg/ha) was 5.0. For the same molecule, the “herbicidal rating AMBEL” value ([5]; rate 0.0630 kg/ha) was 7.0, the “herbicidal effect rating, CYPSE” value ([6]; 0.0625 kg/ha) was 7.0 and the “herbicidal effect rating, CYPSE” value ([6]; 0.1250 kg/ha) was 9.0. The “herbicidal effect rating, CYPSE” value ([6]; 0.2500 kg/ha) was 9.0, the “herbicidal rating ABUTH” value ([7]; rate 0.0158 kg/ha) was 9.0 and the “herbicidal rating ABUTH” value ([7]; rate 0.0315 kg/ha) was 9.0. For the same molecule, the “herbicidal rating ABUTH” value ([7]; rate 0.0630 kg/ha) was 9.0, the “Preemergence herbicidal rating TRZAWR” value ([8]; rate 0.0156 kg/ha) was 0.0 and the “Preemergence herbicidal rating TRZAWR” value ([8]; rate 0.0313 kg/ha) was 0.0. The “Preemergence herbicidal rating TRZAWR” value ([8]; rate 0.0625 kg/ha) was 0.0, the “Preemergence herbicidal rating TRZAWR” value ([8]; rate 0.1250 kg/ha) was 0.0 and the “Preemergence herbicidal rating TRZAWR” value ([8]; rate 0.2500 kg/ha) was 0.0. The “herbicidal rating ORYSAT” value ([9]; rate 0.0158 kg/ha) was 2.0, the “herbicidal rating ORYSAT” value ([9]; rate 0.0315 kg/ha) was 2.0 and the “herbicidal rating ORYSAT” value ([9]; rate 0.0630 kg/ha) was 3.0. For the same molecule, the “Preemergence herbicidal rating GLXMAW” value ([10]; rate 0.0156 kg/ha) was 0.0, the “Preemergence herbicidal rating GLXMAW” value ([10]; rate 0.0313 kg/ha) was 0.0 and the “Preemergence herbicidal rating GLXMAW” value ([10]; rate 0.0625 kg/ha) was 1.0. For the same molecule, the “Preemergence herbicidal rating GLXMAW” value ([10]; rate 0.1250 kg/ha) was 1.0, the “Preemergence herbicidal rating GLXMAW” value ([10]; rate 0.2500 kg/ha) was 1.0 and the “Preemergence herbicidal rating AMBEL” value ([11]; rate 0.0156 kg/ha) was 0.0. The “Preemergence herbicidal rating AMBEL” value ([11]; rate 0.0313 kg/ha) was 0.0, the “Preemergence herbicidal rating AMBEL” value ([11]; rate 0.0625 kg/ha) was 0.0 and the “Preemergence herbicidal rating AMBEL” value ([11]; rate 0.1250 kg/ha) was 0.0. The “Preemergence herbicidal rating AMBEL” value ([11]; rate 0.2500 kg/ha) was 7.0, the “herbicidal effect rating, ECHORC” value ([12]; 0.0313 kg/ha) was 0.0 and the “herbicidal effect rating, ECHORC” value ([12]; 0.0625 kg/ha) was 0.0. The “herbicidal effect rating, ECHORC” value ([12]; 0.1250 kg/ha) was 0.0, the “herbicidal effect rating, ECHORC” value ([12]; 0.2500 kg/ha) was 0.0 and the “Preemergence herbicidal rating ORYSAT” value ([13]; rate 0.0156 kg/ha) was 0.0. For the same molecule, the “Preemergence herbicidal rating ORYSAT” value ([13]; rate 0.0313 kg/ha) was 0.0, the “Preemergence herbicidal rating ORYSAT” value ([13]; rate 0.0625 kg/ha) was 0.0 and the “Preemergence herbicidal rating ORYSAT” value ([13]; rate 0.1250 kg/ha) was 0.0. The “Preemergence herbicidal rating ORYSAT” value ([13]; rate 0.2500 kg/ha) was 0.0, the “Preemergence herbicidal rating CHEAL” value ([14]; rate 0.0156 kg/ha) was 9.0 and the “Preemergence herbicidal rating CHEAL” value ([14]; rate 0.0313 kg/ha) was 9.0. For the same molecule, the “Preemergence herbicidal rating CHEAL” value ([14]; rate 0.0625 kg/ha) was 9.0, the “Preemergence herbicidal rating CHEAL” value ([14]; rate 0.1250 kg/ha) was 6.0 and the “Preemergence herbicidal rating CHEAL” value ([14]; rate 0.2500 kg/ha) was 9.0. The “herbicidal rating ZEAMX” value ([15]; rate 0.0158 kg/ha) was 4.5, the “herbicidal rating ZEAMX” value ([15]; rate 0.0315 kg/ha) was 5.0 and the “herbicidal rating ZEAMX” value ([15]; rate 0.0630 kg/ha) was 5.0. The “Preemergence herbicidal rating GALAP” value ([16]; rate 0.0156 kg/ha) was 0.0, the “Preemergence herbicidal rating GALAP” value ([16]; rate 0.0313 kg/ha) was 0.0 and the “Preemergence herbicidal rating GALAP” value ([16]; rate 0.0625 kg/ha) was 0.0. For the same molecule, the “Preemergence herbicidal rating GALAP” value ([16]; rate 0.1250 kg/ha) was 3.0 and the “Preemergence herbicidal rating GALAP” value ([16]; rate 0.2500 kg/ha) was 7.0.
